From patent publication US9409905B2, “Antibacterial compounds and methods for use” (PTC THERAPEUTICS, INC., priority 2011, dated 2016) come the findings set out here.

Converted amounts (≈) assume the structure as drawn.

Assay [1] relates to Neisseria meningitidis (N. meningitidis) 13090. Kind of assay: Antibacterial activity, MIC (Table 8). Format: cell-based. Summed up:
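Read-out: absence of macroscopically visible growth. The lowest inhibiting concentration from the microbroth dilution series is reported as MIC in μg/mL.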

Assay [2] relates to E. coli LZ3111. Kind of assay: Antibacterial activity, MIC, quinolone resistant strain (Table 2). Format: cell-based. The settings on record: Escherichia coli, LZ3111, read-out: MIC LZ3111. Summed up:
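Growth inhibition assessed by serial drug dilution in broth; endpoint was absence of macroscopically visible growth, reported as MIC, μg/mL.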

Assay [3] has as its system Pseudomonas aeruginosa (P. aeruginosa) 27853. Kind of assay: Antibacterial activity, MIC (Table 5). In kind it is cell-based. Conditions: P. aeruginosa 27853, read-out: MIC, 27853. Summed up:
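Using a microbroth dilution format, the minimum inhibitory concentration was recorded as the lowest tested concentration that stopped visible bacterial growth, expressed in μg/mL.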

In assay [4] the test system is K. pneumoniae MXX1232. Kind of assay: Antibacterial activity, MIC, resistant strain (Table 4). Format: cell-based. Conditions: Klebsiella pneumoniae, MXX1232; resistant K. pneumoniae MMX1232, multi-drug resistant clinical isolate; read-out: MIC, MMX1232. Summed up: (§1)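 Compounds are serially diluted in microbroth, bacteria are grown under the test conditions, and growth is then inspected macroscopically. The lowest concentration without visible growth is reported as the MIC (μg/mL).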

Assay [5] concerns A. baumannii MXX2240. The assay is described as above. In kind it is cell-based. Conditions: Acinetobacter baumannii, MXX2240; resistant A. baumannii MMX2240, multi-drug resistant clinical isolate; read-out: MIC, MMX2240. Summed up: as §1
Assay [6] concerns Escherichia coli (E. coli) BAS849. Kind of assay: Antibacterial activity, microbroth dilution MIC (Table 1). In kind it is cell-based. The settings on record: microbroth dilution, super sensitive Gram-negative E. coli BAS849, read-out: MIC, BAS849. A digest of the protocol:
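Values are MICs (μg/mL): the smallest drug amount at which macroscopically visible bacterial growth is absent under assay conditions, from a microdilution method in broth.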

Assay [7] deals with Staphylococcus aureus (S. aureus) 29213. The assay is described as above. Format: cell-based. Conditions: microbroth dilution, Gram-positive S. aureus 29213, read-out: MIC, 29213. A digest of the protocol: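 Lowest concentration stopping macroscopically visible growth under test conditions, by broth microdilution, defines the MIC (μg/mL).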
Assay [8] relates to E. coli 25922. The assay is described as above. In kind it is cell-based, Escherichia coli. Conditions: Escherichia coli; microbroth dilution; control Gram-negative E. coli 25922 strain; read-out: MIC, 25922. A digest of the protocol:
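Growth inhibition by microbroth dilution. MIC = lowest μg/mL with no visible growth. Strain 25922 is the control Gram-negative; BAS849 is hypersensitive.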

Assay [9] has as its system Haemophilus influenzae (H. influenzae) 49247. Kind of assay: Antibacterial activity, MIC (Table 6). Format: cell-based. The source says:
(§2) The antibacterial activity from a microbroth dilution method may be presented as the minimum inhibitory concentration (MIC in μg/mL). The MIC value is the lowest concentration of drug which prevents macroscopically visible growth under test conditions.
(§3) Antibacterial activity of test compounds against the Gram-negative bacteria Haemophilus influenzae (H. influenzae) 49247 is shown in Table 6, Moraxella catarrhalis (M. catarrhalis) 25238 is shown in Table 7 and Neisseria meningitidis (N. meningitidis) 13090 is shown in Table 8.

Assay [10] concerns Klebsiella pneumoniae (K. pneumoniae) 35657. Kind of assay: Antibacterial activity, MIC (Table 4). The settings on record: K. pneumoniae 35657, read-out: MIC, 35657. In kind it is cell-based. A digest of the protocol: as §1
For assay [11], the system named is Acinetobacter baumannii (A. baumannii) BAA747. Kind of assay: Antibacterial activity, MIC (Table 4). In kind it is cell-based. The settings on record: A. baumannii BAA747, read-out: MIC, BAA747. A digest of the protocol: as §1
Assay [12] deals with E. coli ELZ4000. Kind of assay: Antibacterial activity, MIC, multi-drug resistant clinical isolate (Table 3). Format: cell-based. Conditions: Escherichia coli, ELZ4000, read-out: MIC ELZ4000. A digest of the protocol:
(§4)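 Values derive from a microbroth dilution method, taking as MIC (μg/mL) the lowest tested concentration without macroscopically visible growth.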

Assay [13] deals with E. coli ELZ4251. Described as above. Format: cell-based. The settings on record: Escherichia coli. A digest of the protocol:
as §4

For assay [14], the system named is Moraxella catarrhalis (M. catarrhalis) 25238. Kind of assay: Antibacterial activity, MIC (Table 7). Format: cell-based.
Description: as §2, §3

As for `CCc1c(-c2ccc3c(c2)cc(CN(CC)CC)n3C)[nH]c(=O)c(C(=O)O)c1O` [Cpd 167, 6-(2-((diethylamino)methyl)-1-methyl-1H-indol-5-yl)-5-ethyl-4-hydroxy-2-oxo-1,2-dihydropyridine-3-carboxylic acid], the MIC in [1] was less than 1 µg/mL; in assay [2], 3.5 to 12.5 µg/mL (≈ 8.81 to 31.4 µM); in [3], 12.5 to 150 µg/mL (≈ 31.4 to 377 µM); in [4], 12.5 to 150 µg/mL (≈ 31.4 to 377 µM); in [5] it was 3.5 to 12.5 µg/mL (≈ 8.81 to 31.4 µM); in assay [6], less than 1 µg/mL. For the same compound, the MIC is 12.5 to 150 µg/mL (≈ 31.4 to 377 µM) in assay [7]; less than 1 µg/mL in assay [8]; less than 1 µg/mL in [9]; 1 to 3.5 µg/mL (≈ 2.52 to 8.81 µM) in assay [10]; 1 to 3.5 µg/mL (≈ 2.52 to 8.81 µM) in assay [11]; 12.5 to 150 µg/mL (≈ 31.4 to 377 µM) in [12]. For the same compound, the MIC in assay [13] is 3.5 to 12.5 µg/mL (≈ 8.81 to 31.4 µM); in [14], less than 1 µg/mL.

As to `CCc1c(-c2ccc3c(c2)cc(CN2CCOCC2)n3C)[nH]c(=O)c(C(=O)O)c1O` [Cpd 168, 5-ethyl-4-hydroxy-6-(1-methyl-2-(morpholinomethyl)-1H-indol-5-yl)-2-oxo-1,2-dihydropyridine-3-carboxylic acid], the MIC was less than 1 µg/mL in assay [1]; 3.5 to 12.5 µg/mL (≈ 8.51 to 30.4 µM) in assay [2]; 12.5 to 150 µg/mL (≈ 30.4 to 365 µM) in assay [3]; 12.5 to 150 µg/mL (≈ 30.4 to 365 µM) in assay [4]; 3.5 to 12.5 µg/mL (≈ 8.51 to 30.4 µM) in [5]; less than 1 µg/mL in assay [6]. For the same compound, the MIC was 1 to 3.5 µg/mL (≈ 2.43 to 8.51 µM) in [7]; 1 to 3.5 µg/mL (≈ 2.43 to 8.51 µM) in [8]; less than 1 µg/mL in assay [9]; 1 to 3.5 µg/mL (≈ 2.43 to 8.51 µM) in assay [10]; 1 to 3.5 µg/mL (≈ 2.43 to 8.51 µM) in assay [11]; 12.5 to 150 µg/mL (≈ 30.4 to 365 µM) in [12]. For the same compound, the MIC in assay [13] was 12.5 to 150 µg/mL (≈ 30.4 to 365 µM); in assay [14], less than 1 µg/mL.

With `CCc1c(-c2ccc3c(c2)cc(CN2CCN(C)CC2)n3C)[nH]c(=O)c(C(=O)O)c1O` [Cpd 169, 5-ethyl-4-hydroxy-6-(1-methyl-2-((4-methylpiperazin-1-yl)methyl)-1H-indol-5-yl)-2-oxo-1,2-dihydropyridine-3-carboxylic acid], the MIC in assay [1] is less than 1 µg/mL; in assay [2] it was 3.5 to 12.5 µg/mL (≈ 8.24 to 29.4 µM); in [3] it was 12.5 to 150 µg/mL (≈ 29.4 to 353 µM); in assay [4], 12.5 to 150 µg/mL (≈ 29.4 to 353 µM); in assay [5], 12.5 to 150 µg/mL (≈ 29.4 to 353 µM); in assay [6], less than 1 µg/mL. For the same compound, the MIC in assay [7] fell in the range of 3.5 to 12.5 µg/mL (≈ 8.24 to 29.4 µM); in assay [8], 1 to 3.5 µg/mL (≈ 2.36 to 8.24 µM); in assay [9] it was 1 to 3.5 µg/mL (≈ 2.36 to 8.24 µM); in [10], 1 to 3.5 µg/mL (≈ 2.36 to 8.24 µM); in assay [11], 1 to 3.5 µg/mL (≈ 2.36 to 8.24 µM); in assay [12], 12.5 to 150 µg/mL (≈ 29.4 to 353 µM). For the same compound, the figures for the MIC in assay [13] and in [14] were 12.5 to 150 µg/mL (≈ 29.4 to 353 µM) and less than 1 µg/mL, respectively.

As to `CCc1c(-c2ccc3c(c2)cc(CN2CCNCC2)n3C)[nH]c(=O)c(C(=O)O)c1O` [Cpd 171, 5-ethyl-4-hydroxy-6-(1-methyl-2-(piperazin-1-ylmethyl)-1H-indol-5-yl)-2-oxo-1,2-dihydropyridine-3-carboxylic acid], the MIC in [1] was 1 to 3.5 µg/mL (≈ 2.44 to 8.53 µM); in assay [2] it was 1 to 3.5 µg/mL (≈ 2.44 to 8.53 µM); in [3] it was 12.5 to 150 µg/mL (≈ 30.5 to 365 µM); in assay [4], 12.5 to 150 µg/mL (≈ 30.5 to 365 µM); in assay [5], 12.5 to 150 µg/mL (≈ 30.5 to 365 µM); in assay [6] it was less than 1 µg/mL. The MIC in [7] was 12.5 to 150 µg/mL (≈ 30.5 to 365 µM); in assay [8], 1 to 3.5 µg/mL (≈ 2.44 to 8.53 µM); in assay [9], 1 to 3.5 µg/mL (≈ 2.44 to 8.53 µM); in assay [10], 1 to 3.5 µg/mL (≈ 2.44 to 8.53 µM); in assay [11], 12.5 to 150 µg/mL (≈ 30.5 to 365 µM); in assay [12], 12.5 to 150 µg/mL (≈ 30.5 to 365 µM). Besides, the MIC lay in the range of 12.5 to 150 µg/mL (≈ 30.5 to 365 µM) in [13] and 3.5 to 12.5 µg/mL (≈ 8.53 to 30.5 µM) in assay [14].

Take `CCc1c(-c2ccc3c(c2)cc(CN2CCCC2C)n3C)[nH]c(=O)c(C(=O)O)c1O` (stereo not shown) [Cpd 173, 5-ethyl-4-hydroxy-6-(1-methyl-2-((2-methylpyrrolidin-1-yl)methyl)-1H-indol-5-yl)-2-oxo-1,2-dihydropyridine-3-carboxylic acid]: the MIC in assay [1] was less than 1 µg/mL; in assay [2], 3.5 to 12.5 µg/mL (≈ 8.55 to 30.5 µM); in assay [3] it was 12.5 to 150 µg/mL (≈ 30.5 to 366 µM); in assay [4] it was 12.5 to 150 µg/mL (≈ 30.5 to 366 µM); in assay [5], 12.5 to 150 µg/mL (≈ 30.5 to 366 µM); in assay [6], less than 1 µg/mL. Also, the MIC in [7] was 3.5 to 12.5 µg/mL (≈ 8.55 to 30.5 µM); in assay [8], less than 1 µg/mL; in [9], less than 1 µg/mL; in [10], 1 to 3.5 µg/mL (≈ 2.44 to 8.55 µM); in [11], 1 to 3.5 µg/mL (≈ 2.44 to 8.55 µM); in assay [12], 12.5 to 150 µg/mL (≈ 30.5 to 366 µM). The MIC in assay [13] was 3.5 to 12.5 µg/mL (≈ 8.55 to 30.5 µM); in assay [14], less than 1 µg/mL.
